Assay results published in US7442717B2, “Substituted 2-aminoimidazoles, process for their preparation, their use as medicament or diagnostic aid” (Sanofi-Aventis Deutschland GmbH, priority 2003, dated 2008).
Structures can show the parent of a compound that is named as a salt.

Experiments:
NHE2 = NHE2 (Rattus norvegicus, UniProt P48763); conditions: read-out: IC50 for NHE2; literature value, J. Orlowski et al; cited from earlier work
imidazoline I1 receptor = conditions: literature, Ernsberger et al Eur. J. Pharmacol. 134, 1, 1987; cited from earlier work
adrenergic α2 receptor = conditions: literature, Ernsberger et al Eur. J. Pharmacol. 134, 1, 1987; cited from earlier work
rNHE3 = target: T1, rNHE3 (Rattus norvegicus, UniProt P26433); assay: Recovery of intracellular pH (pHi) after acidification, BCECF fluorescence, in fibroblasts (LAP 1 cells); type: cell-based; conditions: pH recovery in LAP 1 fibroblasts
T1 construct: expressed in transfected cells; host or cells: LAP 1 cells (fibroblasts)
T1 sequence (P26433 29-831): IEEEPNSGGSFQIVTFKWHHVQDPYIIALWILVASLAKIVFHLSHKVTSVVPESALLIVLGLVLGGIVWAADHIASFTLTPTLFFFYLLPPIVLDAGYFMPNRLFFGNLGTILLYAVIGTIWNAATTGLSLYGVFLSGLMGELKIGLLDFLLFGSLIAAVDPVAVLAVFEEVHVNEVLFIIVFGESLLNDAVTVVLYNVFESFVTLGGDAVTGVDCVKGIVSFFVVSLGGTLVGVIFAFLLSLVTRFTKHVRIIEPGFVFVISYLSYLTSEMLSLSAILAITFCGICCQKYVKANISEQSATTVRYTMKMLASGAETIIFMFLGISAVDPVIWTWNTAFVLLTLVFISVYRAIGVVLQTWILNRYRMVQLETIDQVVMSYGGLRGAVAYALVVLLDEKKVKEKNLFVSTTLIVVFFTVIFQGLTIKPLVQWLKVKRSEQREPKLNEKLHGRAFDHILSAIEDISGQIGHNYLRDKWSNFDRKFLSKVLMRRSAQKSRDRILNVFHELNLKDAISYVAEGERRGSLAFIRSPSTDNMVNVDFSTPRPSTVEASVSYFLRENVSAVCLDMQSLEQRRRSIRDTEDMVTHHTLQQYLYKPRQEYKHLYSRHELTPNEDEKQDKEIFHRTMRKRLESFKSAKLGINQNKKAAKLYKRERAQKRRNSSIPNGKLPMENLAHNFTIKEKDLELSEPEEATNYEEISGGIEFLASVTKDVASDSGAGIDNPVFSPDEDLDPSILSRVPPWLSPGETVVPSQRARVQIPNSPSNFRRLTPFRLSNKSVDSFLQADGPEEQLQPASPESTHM
Protocol: In this test, the recovery in the intracellular pH (pHi) after an acidification was ascertained, which is initiated if the NHE3 is capable of functioning, even under bicarbonate-free conditions. For this purpose, the pHi was determined using the pH-sensitive fluorescent dye BCECF (Calbiochem, the precursor BCECF-AM is employed). The cells (fibroblasts, LAP 1 cells) were initially loaded with BCECF. The BCECF fluorescence was determined in a “Ratio Fluorescence Spectrometer” (Photon Technology International, South Brunswick, N.J., USA) at excitation wavelengths of 505 and 440 nm and an emission wavelength of 535 nm and converted into the pHi using calibration curves. The cells were incubated in NH4Cl buffer (pH 7.4) (NH4Cl buffer: 115 mM NaCl, 20 mM NH4Cl, 5 mM KCl, 1 mM CaCl2, 1 mM MgSO4, 20 mM Hepes, 5 mM glucose, 1 mg/ml BSA; a pH of 7.4 is adjusted with 1 M NaOH) even during the BCECF loading. The intracellular acidification was induced by adding 975 μl of an NH4Cl-free buffer (see below) to 25 μl aliquots of the cells incubated in NH4Cl buffer. The subsequent rate of pH recovery was recorded for three minutes. To calculate the inhibitory potency of the tested substances, the cells were initially investigated in buffers with which a complete or absolutely no pH recovery took place. For complete pH recovery (100%), the cells were incubated in Na^+-containing buffer (133.8 mM NaCl, 4.7 mM KCl, 1.25 mM CaCl2, 1.25 mM MgCl2, 0.97 mM Na2HPO4, 0.23 mM NaH2PO4, 5 mM Hepes, 5 mM glucose, a pH of 7.0 is adjusted with 1 M NaOH). To determine the 0% value, the cells were incubated in an Na^+-free buffer (133.8 mM choline chloride, 4.7 mM KCl, 1.25 mM CaCl2, 1.25 mM MgCl2, 0.97 mM K2HPO4, 0.23 mM KH2PO4, 5 mM Hepes, 5 mM glucose, a pH of 7.0 is adjusted with 1 M KOH). The substances to be tested were made up in the Na^+-containing buffer. The recovery of the intracellular pH at each test concentration of a substance was expressed as a percentage of the maximum recovery. The IC50 value for the particular substance for the individual NHE subtypes was calculated from the pH recovery percentages using the Sigma-Plot program.

NHE3 = NHE3 (Oryctolagus cuniculus, UniProt P26432); conditions: literature, M. Donowitz et al. Am. J. Physiol. 276; cited from earlier work
Chain of NHE3 (P26432 30-832): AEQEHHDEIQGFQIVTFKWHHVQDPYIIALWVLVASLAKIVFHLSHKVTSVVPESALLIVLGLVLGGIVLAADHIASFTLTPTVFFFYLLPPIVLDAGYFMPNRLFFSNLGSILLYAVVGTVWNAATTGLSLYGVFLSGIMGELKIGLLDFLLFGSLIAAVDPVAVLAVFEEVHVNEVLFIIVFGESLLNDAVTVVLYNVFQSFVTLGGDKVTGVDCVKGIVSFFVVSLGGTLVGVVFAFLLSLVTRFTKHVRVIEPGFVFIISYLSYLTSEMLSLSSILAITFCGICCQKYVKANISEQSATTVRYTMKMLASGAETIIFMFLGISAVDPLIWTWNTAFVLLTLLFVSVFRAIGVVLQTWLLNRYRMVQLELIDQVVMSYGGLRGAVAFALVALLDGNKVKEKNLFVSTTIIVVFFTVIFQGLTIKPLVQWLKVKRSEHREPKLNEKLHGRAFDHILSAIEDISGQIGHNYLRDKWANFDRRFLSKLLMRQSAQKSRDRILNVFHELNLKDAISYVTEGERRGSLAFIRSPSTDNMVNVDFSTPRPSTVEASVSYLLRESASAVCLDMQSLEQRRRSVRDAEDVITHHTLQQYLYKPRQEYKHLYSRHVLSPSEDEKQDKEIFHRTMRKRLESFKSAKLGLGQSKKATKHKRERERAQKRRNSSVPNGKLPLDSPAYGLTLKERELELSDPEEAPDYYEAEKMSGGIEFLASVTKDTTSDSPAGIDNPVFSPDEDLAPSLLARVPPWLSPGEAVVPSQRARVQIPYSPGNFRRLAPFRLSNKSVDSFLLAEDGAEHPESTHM

Chain of NHE2 (P48763 whole entry): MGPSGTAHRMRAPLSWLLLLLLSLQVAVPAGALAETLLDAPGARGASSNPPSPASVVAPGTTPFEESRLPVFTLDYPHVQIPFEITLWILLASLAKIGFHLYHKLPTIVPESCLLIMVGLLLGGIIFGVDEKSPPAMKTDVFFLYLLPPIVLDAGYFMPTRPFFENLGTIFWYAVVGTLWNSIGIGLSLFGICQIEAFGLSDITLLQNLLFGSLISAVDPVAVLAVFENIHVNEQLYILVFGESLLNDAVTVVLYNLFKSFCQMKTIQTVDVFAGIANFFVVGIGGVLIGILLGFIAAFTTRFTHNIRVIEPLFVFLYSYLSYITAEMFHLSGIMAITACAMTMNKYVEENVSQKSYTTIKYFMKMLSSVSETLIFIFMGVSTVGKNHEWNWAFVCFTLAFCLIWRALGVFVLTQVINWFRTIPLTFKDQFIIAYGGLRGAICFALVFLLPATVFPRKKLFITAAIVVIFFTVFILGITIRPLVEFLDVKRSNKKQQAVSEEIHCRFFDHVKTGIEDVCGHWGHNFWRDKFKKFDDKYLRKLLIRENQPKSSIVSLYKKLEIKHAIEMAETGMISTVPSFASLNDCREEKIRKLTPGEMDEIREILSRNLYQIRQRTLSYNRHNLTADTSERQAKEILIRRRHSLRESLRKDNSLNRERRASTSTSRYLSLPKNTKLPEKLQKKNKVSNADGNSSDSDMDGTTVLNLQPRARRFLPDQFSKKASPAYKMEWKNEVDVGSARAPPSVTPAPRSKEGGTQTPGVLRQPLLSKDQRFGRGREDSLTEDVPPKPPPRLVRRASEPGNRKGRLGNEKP

Compound | IC50 (rNHE3) [µM] | also measured
Clc1cccc(Cl)c1N=C1NCCN1 [Clonidine] | – | IC50 (NHE2): 42000 nM; affinity for the imidazoline I1 receptor (imidazoline I1 receptor): high affinity; affinity for the adrenergic α2 receptor (adrenergic α2 receptor): high affinity
Cc1c[nH]c(Nc2c(Cl)cccc2Cl)n1 [Example 2, (2,6-Dichlorophenyl)(4-methyl-1H-imidazol-2-yl)amine hydrochloride] | 1.7 | –
CN(c1nc2c([nH]1)CCCC2)c1c(Cl)cccc1Cl [Example 7, hydrochloride] | 0.28 | –
CC(C)[C@@H](CC[C@@H](C)[C@H]1CC[C@H]2[C@@H]3[C@H](O)C[C@H]4C[C@@H](NCCCNCCCCN)CC[C@]4(C)[C@H]3CC[C@]12C)OS(=O)(=O)O [Squalamine] | – | time to maximum strength of NHE3-inhibiting effect (NHE3): only after one hour

Further lines, with some results ahead:

IC50 (rNHE3) [µM] | Compound | also measured
7.7 | Clc1cccc(Cl)c1Nc1ncc[nH]1 [Example 1, (2,6-Dichlorophenyl)(1H-imidazol-2-yl)amine hydrochloride] | –
0.84 | Cc1nc(Nc2c(Cl)cccc2Cl)[nH]c1C [Example 3, (2,6-Dichlorophenyl)(4,5-dimethyl-1H-imidazol-2-yl)amine hydrochloride] | –
0.24 | Clc1cccc(Cl)c1Nc1nc2c([nH]1)CCCC2 [Example 5, (2,6-Dichlorophenyl)(4,5,6,7-tetrahydro-1H-benzoimidazol-2-yl)amine hydrochloride] | –
98 | N#Cc1nc(Nc2c(Cl)cccc2Cl)[nH]c1C#N [Example 6, 2-(2,6-Dichlorophenylamino)-1H-imidazole-4,5-dicarbonitrile] | –
